In patent publication US20230263822A1, “MODULATION OF FACTOR 11 EXPRESSION” (Ionis Pharmaceuticals, Inc., priority 2008, published 2023):

Legend:
[1] = Tolerability in CD1 mice: liver function, ALT, AST, bilirubin, albumin (Example 33); conditions: plasma, 50 mg/kg s.c. twice a week
Protocol: (§2) A control group of five mice was injected subcutaneously with PBS for 2 weeks. All experimental groups (i.e. ASO treated mice at 2, 4, 6 weeks) were compared to the control group (i.e. PBS, 2 weeks).
To evaluate the effect of ISIS oligonucleotides on hepatic function, plasma concentrations of transaminases were measured using an automated clinical chemistry analyzer (Hitachi Olympus AU400e, Melville, N.Y.). […] Plasma levels of bilirubin and albumin were also measured using the same clinical chemistry analyzer and expressed in mg/dL.

[2] = Bleeding assay, Surgicutt Jr. device (Example 45); assay type: in vivo, cynomolgus monkeys; design: unit not given here; conditions: escalating dose regimen
Protocol: (§1) Groups, each consisting of two male and three female monkeys, were injected subcutaneously with ISIS 416838, ISIS 416850, ISIS 416858, ISIS 416864, or ISIS 417002 in escalating doses. Antisense oligonucleotide was administered to the monkeys at 5 mg/kg three times per a week for week 1; 5 mg/kg twice per week for weeks 2 and 3; 10 mg/kg three times per week for week 4; 10 mg/kg twice per week for weeks 5 and 6; 25 mg/kg three times per week for week 7; and 25 mg/kg twice per week for weeks 8, 9, 10, 11, and 12. One control group, consisting of two male and three female monkeys, was injected subcutaneously with PBS according to the same dosing regimen. An additional experimental group, consisting of two male and three female monkeys, was injected subcutaneously with ISIS 416850 in a chronic, lower dose regimen. Antisense oligonucleotide was administered to the monkeys at 5 mg/kg three times per week for week 1; 5 mg/kg twice per week for week 2 and 3; 10 mg/kg three times per week for week 4; and 10 mg/kg twice per week for weeks 5 to 12. Body weights were measured weekly. Blood samples were collected 14 days and 5 days before the start of treatment and subsequently once per week for Factor 11 protein activity analysis in plasma, fibrinogen measurement, PT and aPTT measurements, bleeding times, and measurement of various hematologic factors. On day 85, the monkeys were euthanized by exsanguination while under deep anesthesia, and organs harvested for further analysis.
On different days during the treatment period, bleeding assay was performed using a Surgicutt Jr. device (ITC, New Jersey). Monkeys were placed in monkey chair with their arm placed in a steady support. The arm was lightly shaved and a sphygmomanometer was placed on the upper arm. The cuff of the sphygmomanometer was inflated to 40 mm Hg and this pressure was maintained throughout the procedure. The area on the upper arm to be incised was cleansed with an antiseptic swab and the Surgicutt Jr device was used to make an incision over the lateral aspect, volar surface of the forearm, parallel to and 5 cm below the antecubital crease. At the exact moment the incision was made, a stopwatch was started. Every 30 seconds, blood from the incision was blotted out using a blotting paper without directly touching the incision, so that formation of the platelet plug was not disturbed. Blood was blotted out every 30 seconds until blood no longer stained the paper. The stopwatch was then stopped and the bleeding time determined. The sphygmomanometer was removed from the animal's arm, the incision site was antiseptically swabbed and a wound closure strip applied. The ISIS oligonucleotide, ISIS 416850, given with the chronic dose regimen is distinguished from the other oligonucleotides with an asterisk (*).

[3] = Tolerability in CD1 mice: kidney function, BUN, creatinine (Example 33); conditions: plasma, 50 mg/kg s.c. twice a week
Protocol: as §2
To evaluate the effect of ISIS oligonucleotides on kidney function, plasma concentrations of blood urea nitrogen (BUN) and creatinine were measured using an automated clinical chemistry analyzer (Hitachi Olympus AU400e, Melville, N.Y.).

fibrinogen = test: Fibrinogen assay (Example 45); assay type: in vivo, cynomolgus monkeys; conditions: plasma, escalating dose regimen
Protocol: as §1
Nine parts of fresh monkey plasma was collected into one part of trisodium citrate. The samples were evaluated of fibrinogen content using an ACL 9000 coagulation instrument (Instrumentation Laboratory, Italy). The ISIS oligonucleotide, ISIS 416850, given with the chronic dose regimen is distinguished from the other oligonucleotides with an asterisk (*).

## ISIS 416838: MOE gapmer, nucleobases 1018 to 1042 of SEQ ID NO: 1 (Table 6) (antisense GCAACCGGGATGATGAGTGC; MOE gapmer, wing and gap sizes not given here)
[1]; 2 weeks
  ALT: 61 IU/L
  AST: 106 IU/L
  Albumin: 3.5
  Bilirubin: 0.57 mg/dL
[1]; 4 weeks
  ALT: 41 IU/L
  AST: 73 IU/L
  Albumin: 3.8
  Bilirubin: 0.24 mg/dL
[1]; 6 weeks
  ALT: 141 IU/L
  AST: 107 IU/L
  Albumin: 3.6
  Bilirubin: 0.20 mg/dL
[2]; day 15
  bleeding time: 167
[2]; day 22
  bleeding time: 165
[2]; day 36
  bleeding time: 166
[2]; day 43
  bleeding time: 120
[2]; day 57
  bleeding time: 238
[2]; day 64
  bleeding time: 131
[2]; day 78
  bleeding time: 145
[2]; day 85
  bleeding time: 201
[2]; day −5
  bleeding time: 150
[2]; day −14
  bleeding time: 200
[3]; 2 weeks
  BUN: 25 mg/dL
  Creatinine: 0.09 mg/dL
[3]; 4 weeks
  BUN: 38 mg/dL
  Creatinine: 0.27 mg/dL
[3]; 6 weeks
  BUN: 30 mg/dL
  Creatinine: 0.14 mg/dL
fibrinogen; day 8
  fibrinogen levels: 209 mg/dL
fibrinogen; day 15
  fibrinogen levels: 198 mg/dL
fibrinogen; day 22
  fibrinogen levels: 183 mg/dL
fibrinogen; day 29
  fibrinogen levels: 184 mg/dL
fibrinogen; day 36
  fibrinogen levels: 182 mg/dL
fibrinogen; day 43
  fibrinogen levels: 186 mg/dL
fibrinogen; day 50
  fibrinogen levels: 216 mg/dL
fibrinogen; day 57
  fibrinogen levels: 190 mg/dL
fibrinogen; day 64
  fibrinogen levels: 190 mg/dL
fibrinogen; day 71
  fibrinogen levels: 199 mg/dL
fibrinogen; day 78
  fibrinogen levels: 189 mg/dL
fibrinogen; day 85
  fibrinogen levels: 196 mg/dL
fibrinogen; day −5
  fibrinogen levels: 205 mg/dL
fibrinogen; day −14
  fibrinogen levels: 251 mg/dL

## ISIS 417002: MOE gapmer, nucleobases 1275 to 1318 of SEQ ID NO: 1 (Table 8) (antisense GGTGCACAGTTTCTGGCAGG; MOE gapmer, wing and gap sizes not given here)
[1]; 2 weeks
  ALT: 71 IU/L
  AST: 96 IU/L
  Albumin: 3.2
  Bilirubin: 0.50 mg/dL
[1]; 4 weeks
  ALT: 138 IU/L
  AST: 87 IU/L
  Albumin: 3.4
  Bilirubin: 0.25 mg/dL
[1]; 6 weeks
  ALT: 2579 IU/L
  AST: 1166 IU/L
  Albumin: 3.4
  Bilirubin: 0.29 mg/dL
[2]; day 15
  bleeding time: 174
[2]; day 22
  bleeding time: 194
[2]; day 36
  bleeding time: 186
[2]; day 43
  bleeding time: 120
[2]; day 57
  bleeding time: 206
[2]; day 64
  bleeding time: 146
[2]; day 78
  bleeding time: 163
[2]; day 85
  bleeding time: 182
[2]; day −5
  bleeding time: 175
[2]; day −14
  bleeding time: 185
[3]; 2 weeks
  BUN: 19 mg/dL
  Creatinine: 0.06 mg/dL
[3]; 4 weeks
  BUN: 23 mg/dL
  Creatinine: 0.16 mg/dL
[3]; 6 weeks
  BUN: 19 mg/dL
  Creatinine: 0.10 mg/dL
fibrinogen; day 8
  fibrinogen levels: 221 mg/dL
fibrinogen; day 15
  fibrinogen levels: 195 mg/dL
fibrinogen; day 22
  fibrinogen levels: 199 mg/dL
fibrinogen; day 29
  fibrinogen levels: 199 mg/dL
fibrinogen; day 36
  fibrinogen levels: 191 mg/dL
fibrinogen; day 43
  fibrinogen levels: 187 mg/dL
fibrinogen; day 50
  fibrinogen levels: 236 mg/dL
fibrinogen; day 57
  fibrinogen levels: 201 mg/dL
fibrinogen; day 64
  fibrinogen levels: 236 mg/dL
fibrinogen; day 71
  fibrinogen levels: 228 mg/dL
fibrinogen; day 78
  fibrinogen levels: 221 mg/dL
fibrinogen; day 85
  fibrinogen levels: 224 mg/dL
fibrinogen; day −5
  fibrinogen levels: 222 mg/dL
fibrinogen; day −14
  fibrinogen levels: 291 mg/dL
